Data from patent US6696440B1, “Treatment of asthma with MEK inhibitors” (Warner-Lambert Company, priority 1999, dated 2004).
Marks after values point to notes of the source that are not given here.

Key:
OVA-primed splenocytes = experiment: Inhibition of antigen-induced IL-5 production by OVA-primed splenocytes in vitro; format: cell-based, mice; settings: Mus musculus, Splenocyte, 72 h; OVA-sensitized splenocytes cultured 3 days with 200 μg/mL OVA; IL-5 by ELISA
Procedure: (§1) For each of these assays, female C57BL/6 mice obtained from the Jackson Laboratory (Bar Harbor, Me.) were given an intraperitoneal (i.p.) injection of ovalbumin (OVA, Grade V, Sigma Chemical Company, St. Louis, Mo.) adsorbed to aluminum hydroxide (10 μg OVA+9 mg aluminum hydroxide in 200 μL saline). This sensitizes OVA-specific lymphocytes for subsequent restimulation either in vivo or in vitro.
The first set of experiments was designed to determine whether the MEK inhibitors could prevent antigen-induced production of IL-5 by the OVA-primed splenocytes in vitro. IL-5 is required for the differentiation, migration, and survival of pulmonary eosinophils, which are thought to be responsible for much of the pathology associated with human asthma. In order to examine the effects of MEK inhibitors on IL-5 production, OVA-sensitized mice were sacrificed by cervical dislocation 14 days after sensitization (Day 14), the spleens were excised and disaggregated, and the erythrocytes were lysed. The splenocytes were washed and resuspended at […] in complete medium consisting of RPMI 1640 (Gibco BRL, Gaithersburg, Md.) with 10% heat-inactivated fetal calf serum (Hyclone, Logan, Utah), 55 μM 2-mercaptoethanol, 50 U/mL penicillin G, 50 μg/mL streptomycin sulfate, and 2 mM L-glutamine (Gibco BRL). The splenocytes were then cultured at 37° C. in the presence of 200 μg/mL OVA. MEK inhibitors were also added to the cultures from sterile 10 mM stock solutions (in DMSO). After 3 days, the culture medium was recovered and assayed for IL-5 by specific ELISA.

BAL eosinophils [1] = experiment: Adoptive (passive) transfer of eosinophilic lung inflammation by MEK inhibitor-treated splenocytes; format: in vivo; settings: spleen cell culture treated with 10 μM compound; cells transferred to naive mice; OVA aerosol challenge
Procedure: as §1
When OVA-sensitized spleen cells are restimulated with OVA in vitro for 3 days, as described above, the spleen cells not only produce IL-5, but also acquire the ability to induce eosinophilic lung inflammation when transferred into naive recipient mice. The critical cell type responsible for this adoptively-transferred activity is thought to be IL-5-producing T lymphocytes. […] Splenocytes from OVA restimulation cultures, with or without the addition of MEK inhibitors were harvested after 3 days of culture, washed three times, and resuspended at 1×10^8 cells/mL in sterile saline. Groups of five naive (unsensitized) […] mice were injected i.p. with 200 μL of the cell suspension (2×10^7 cells). Three days after transfer of cells, the recipient mice were challenged with a 12-minute inhalation of an aerosol formulation of 1.5% OVA in saline (weight/volume), the mist being produced by a nebulizer (small particle generator model SPAG-2, ICN Pharmaceuticals, Costa Mesa, Calif.). Three days after aerosol challenge, the mice were anesthetized with an i.p. injection of an anesthetic mixture comprising Ketamine, acepromazine, and xylazine. The trachea of each mouse was exposed and cannulated. The lungs and upper airways were lavaged with 0.5 mL of cold (5° C.) phosphate buffered saline (PBS). The cells within a 200 μL portion of the bronchoalveolar lavage (BAL) fluid were enumerated using a Coulter counter (Model ZB 1, Coulter Electronics, Hialeah, Fla.). […] The number of eosinophils in the BAL fluid was determined by multiplying the percentage of eosinophils by the total cell count.

BAL eosinophils [2] = experiment: Active OVA-induced eosinophilic lung inflammation in mice, oral dosing; format: in vivo; settings: for % Inhibition of BAL Eosinophils / % Inhibition of BAL Eosinophilia: oral; for % Inhibition of BAL Eosinophilia: 4 days (Day 13 to Day 16); for activity against BAL eosinophils (in words): multiple doses, dosing for 4 days (Table 4); for inhibitory activity against BAL eosinophils (in words): oral dosing schedule of 9 days (Table 5)
Procedure: as §1
The final set of experiments was designed to test whether MEK inhibitors could inhibit active OVA-induced eosinophilic lung inflammation in mice. Mice were sensitized with OVA/aluminum hydroxide on Day 0 as described above. On Day 14, the mice were challenged by aerosol with 1.5% OVA, as described above for the adoptive-transfer recipients. One group of eight sensitized mice was dosed orally with vehicle (0.5% hydroxypropylmethylcellulose/0.25% TWEEN-80). Other groups of sensitized mice (8 mice per group) were given oral doses of a MEK inhibitor. The test compound was dissolved in the vehicle, and the volume for each dosage was adjusted to 200 μL, so that each test animal received the same oral volume. In experiments reported in Table 3 and Table 4, the MEK inhibitor was administered starting on Day 13 (ie, 13 days after initial sensitization and 1 day prior to aerosol challenge), and continued daily through Day 16 (4 days total). In experiments reported in Table 5, the MEK inhibitor was administered starting on Day 7 (ie, 7 days after initial sensitization and 7 days prior to aerosol challenge), and continued daily through […]. On Day 17 of each experiment (17 days following the initial OVA challenge, and 3 days after the OVA aerosol challenge), all animals including controls were anesthetized, cannulated, and lavaged as previously described. The number of BAL eosinophils was determined as described above.

[3] = 4-day compound dosing, 10 mg/kg
[4] = 4-day compound dosing, 30 mg/kg
[5] = 4-day compound dosing, 100 mg/kg

Question: For `Cc1cc(I)ccc1Nc1c(C(=O)NO)cc(Br)c(F)c1F` [PD 171984, 2-(2-Methyl-4-iodophenylamino)-N-hydroxy-3,4-difluoro-5-bromobenzamide], which IC50 (OVA-primed splenocytes) is on record?
Answer: 117 nM

Question: What about the “% Inhibition of BAL Eosinophils” value (BAL eosinophils [1]) of the same compound?
Answer: 99.82%

Question: What about the “% Inhibition of BAL Eosinophils” value (BAL eosinophils [2]; [3]) of the same compound?
Answer: 38.4* %

Question: What about the “% Inhibition of BAL Eosinophils” value (BAL eosinophils [2]; [4]) of the same compound?
Answer: 46.6* %

Question: What about the “% Inhibition of BAL Eosinophils” value (BAL eosinophils [2]; [5]) of the same compound?
Answer: 58.4* %

Question: And the “% Inhibition of BAL Eosinophils” value (BAL eosinophils [2]; 9-day compound dosing, 10 mg/kg, Experiment 1)?
Answer: −13.74%

Question: What about the “% Inhibition of BAL Eosinophils” value (BAL eosinophils [2]; 9-day compound dosing, 10 mg/kg, Experiment 2) of the same compound?
Answer: 50.15* %

Question: And the “% Inhibition of BAL Eosinophils” value (BAL eosinophils [2]; 9-day compound dosing, 30 mg/kg, Experiment 1)?
Answer: 80.64* %

Question: And the “% Inhibition of BAL Eosinophils” value (BAL eosinophils [2]; 9-day compound dosing, 30 mg/kg, Experiment 2)?
Answer: 37.23* %

Question: What about the “% Inhibition of BAL Eosinophils” value (BAL eosinophils [2]; 9-day compound dosing, 100 mg/kg, Experiment 1) of the same compound?
Answer: 88.40* %

Question: What about the “% Inhibition of BAL Eosinophils” value (BAL eosinophils [2]; 9-day compound dosing, 100 mg/kg, Experiment 2) of the same compound?
Answer: 54.77* %

Question: And the “% Inhibition of BAL Eosinophilia” value (BAL eosinophils [2]; Dose 100)?
Answer: 55.26* %

Question: What about the “inhibition of pulmonary eosinophilia (in words)” value (BAL eosinophils [2]; initial analysis, dosed orally for 4 days (Table 3)) of the same compound?
Answer: demonstrated any inhibition of pulmonary eosinophilia

Question: And the “activity against BAL eosinophils (in words)” value (BAL eosinophils [2])?
Answer: appears active

Question: What about the “inhibitory activity against BAL eosinophils (in words)” value (BAL eosinophils [2]) of the same compound?
Answer: statistically significant inhibitory activity

Question: And the melting point?
Answer: 80 to 90 °C

Question: For `Cc1cc(I)ccc1Nc1c(C(=O)NOCC2CC2)cc(Br)c(F)c1F` [PD 177168, 2-(2-Methyl-4-iodophenylamino)-N-cyclopropylmethoxy-3,4-difluoro-5-bromobenzamide], which IC50 (OVA-primed splenocytes) is on record?
Answer: 1200 nM

Question: And the “% Inhibition of BAL Eosinophilia” value (BAL eosinophils [2]; Dose 100)?
Answer: −23.38%

Question: For `O=C(NOCC1CC1)c1ccc(F)c(F)c1Nc1ccc(I)cc1Cl` [PD 184352, 2-(2-Chloro-4-iodophenylamino)-N-cyclopropylmethoxy-3,4-difluorobenzamide], which IC50 (OVA-primed splenocytes) is on record?
Answer: 1620 nM

Question: And the “% Inhibition of BAL Eosinophils” value (BAL eosinophils [1])?
Answer: 99.46%

Question: What about the “% Inhibition of BAL Eosinophils” value (BAL eosinophils [2]; [3]) of the same compound?
Answer: −22.7%

Question: And the “% Inhibition of BAL Eosinophils” value (BAL eosinophils [2]; [4])?
Answer: −153.8%

Question: What about the “% Inhibition of BAL Eosinophils” value (BAL eosinophils [2]; [5]) of the same compound?
Answer: −8.2%

Question: And the “% Inhibition of BAL Eosinophils” value (BAL eosinophils [2]; 9-day compound dosing, 10 mg/kg)?
Answer: −42.99%

Question: What about the “% Inhibition of BAL Eosinophils” value (BAL eosinophils [2]; 9-day compound dosing, 30 mg/kg) of the same compound?
Answer: 1.83%

Question: And the “% Inhibition of BAL Eosinophils” value (BAL eosinophils [2]; 9-day compound dosing, 100 mg/kg)?
Answer: 59.85%

Question: And the “% Inhibition of BAL Eosinophilia” value (BAL eosinophils [2]; Dose 150)?
Answer: −5.41%

Question: And the “activity against BAL eosinophils (in words)” value (BAL eosinophils [2])?
Answer: does not

Question: What about the “inhibitory activity against BAL eosinophils (in words)” value (BAL eosinophils [2]) of the same compound?
Answer: shown to inhibit the asthma-like response in mice

Question: Which melting point does the source give for `Cc1cc(I)ccc1Nc1cc(F)ccc1C(=O)O` [Example 1, 4-Fluoro-2-(4-iodo-2-methylphenylamino)benzoic Acid] here?
Answer: 224 to 229.5 °C

Question: Which IC50 (OVA-primed splenocytes) does the source give for `COc1cccc(-c2cc(=O)c3ccccc3o2)c1N` [PD 098059, 2-(2-amino-3-methoxyphenyl)-4-oxo-4H-[1]benzopyran, reference compound] here?
Answer: 17400 nM

Question: For `O=C(NO)c1cc(Br)c(F)c(F)c1Nc1ccc(I)cc1Cl` [PD 184386, 2-(2-Chloro-4-iodophenylamino)-N-hydroxy-3,4-difluoro-5-bromobenzamide], which IC50 (OVA-primed splenocytes) is on record?
Answer: 23 nM

Question: And the “% Inhibition of BAL Eosinophils” value (BAL eosinophils [1])?
Answer: 99.78%

Question: What about the “% Inhibition of BAL Eosinophilia” value (BAL eosinophils [2]; Dose 100) of the same compound?
Answer: −33.24%

Question: For `COc1ccc(Nc2ccc(I)cc2)c(C(=O)O)c1` [Example 24, 2-(4-Iodo-phenylamino)-5-methoxy-benzoic acid], which melting point is on record?
Answer: 208 to 211 °C

Question: With `O=C(NOCC1CC1)c1cc(Br)c(F)c(F)c1Nc1ccc(I)cc1Cl` [PD 184161, 2-(2-Chloro-4-iodophenylamino)-N-cyclopropylmethoxy-3,4-difluoro-5-bromobenzamide] as the compound, how does the IC50 (OVA-primed splenocytes) read?
Answer: 1150 nM

Question: And the “% Inhibition of BAL Eosinophilia” value (BAL eosinophils [2]; Dose 100)?
Answer: −32.53%

Question: With `Cc1cc(I)ccc1Nc1ccccc1-c1nnn[nH]1` [Example 208, (4-iodo-2-methyl-phenyl)-[2-(1H-tetrazol-5-yl)-phenyl]amine] as the compound, how does the melting point read?
Answer: 231 °C (dec.)

Question: For `Cc1cc(I)ccc1Nc1ccccc1C(=O)O` [Example 19, 2-(4-Iodo-2-methyl-phenylamino)-benzoic acid], which melting point is on record?
Answer: 218 to 223 °C

Question: For `Cc1cc(I)ccc1Nc1cc(F)ccc1C(=O)NO` [PD 170611, 2-(2-Methyl-4-iodophenylamino)-N-hydroxy-4-fluorobenzamide], which IC50 (OVA-primed splenocytes) is on record?
Answer: 1120 nM

Question: And the melting point?
Answer: 61 to 75 °C
